Assay results reported in PMC3156940 (Biochimica et biophysica acta, 2011).

Molecular target: KirBac1.1 (His6-KirBac1.1) (Burkholderia pseudomallei, UniProt P83698)
Settings: 200 nM [3H]cholesterol, 0.1% CHAPS, pH 7.5, 37 °C, 2 h

KirBac1.1 (His6-KirBac1.1), sequence (P83698 1-333): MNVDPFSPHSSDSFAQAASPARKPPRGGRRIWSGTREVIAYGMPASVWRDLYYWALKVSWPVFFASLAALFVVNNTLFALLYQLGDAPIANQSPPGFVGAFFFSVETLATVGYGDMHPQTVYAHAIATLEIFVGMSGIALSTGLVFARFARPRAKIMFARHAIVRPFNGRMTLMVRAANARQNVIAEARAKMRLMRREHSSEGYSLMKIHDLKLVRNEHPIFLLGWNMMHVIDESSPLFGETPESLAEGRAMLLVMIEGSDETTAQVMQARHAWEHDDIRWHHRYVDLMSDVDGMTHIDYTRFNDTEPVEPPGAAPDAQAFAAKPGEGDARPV

Structure (SMILES)	competition with [3H]cholesterol
C[C@H](CCCC(C)(C)O)[C@H]1CC[C@H]2[C@@H]3CC=C4C[C@@H](O)CC[C@]4(C)[C@H]3CC[C@]12C [25-hydroxycholesterol]	25-hydroxycholesterol was a significantly weaker competitor
CC(C)CCC[C@@H](C)[C@H]1CC[C@H]2[C@@H]3CC=C4C[C@H](O)CC[C@]4(C)[C@H]3CC[C@]12C [epicholesterol]	epicholesterol efficiently competed with cholesterol for the channel binding
